From publication PMC5889877, “Ex Vivo Cardiotoxicity of Antineoplastic Casiopeinas Is Mediated through Energetic Dysfunction and Triggered Mitochondrial-Dependent Apoptosis” (Oxidative Medicine and Cellular Longevity, 2018)
Marks after values point to notes of the source that are not given here.

Key:
[1] = system: subcutaneous tumors; conditions: nude mice ref 29; cited from earlier work
[2] = system: isolated rat hearts; test: Myocardial oxygen consumption and energetic metabolites (ATP, PCr) in perfused hearts; conditions: Cas at IC50, Doxo 5 μM
Method: (§1) Male Wistar rats (250–300 g) were injected with heparin (10^3 U·kg^−1, i.p.) 20 minutes prior to anesthesia with pentobarbital (100 mg·kg^−1, i.p.). When bilateral corneal reflex was absent, the heart was excised through an abdominal approach. Then, the ascending aorta was visualized and cut and the heart was placed in a cardioplegic solution. To avoid ischemia, the time between cutting the diaphragm to placing the heart in the solution was less than 60 seconds. The hearts were mounted in accordance with the Langendorff model and perfused at a constant flow (12 ml·min^−1) with a Krebs-Henseleit buffer as previously described. A latex balloon connected to a pressure transducer filled with saline solution was inserted into the left ventricle after establishing autonomous contraction. The pulmonary artery was cannulated and connected to a closed chamber using a Clark-type oxygen electrode (Yellow Springs Instruments, Yellow Springs, Ohio) to measure myocardial oxygen consumption (MVO2) in the coronary effluent. The rate of MVO2 was calculated as the difference between the concentration in the K-H buffer before (100%) and after perfusion. Data Trax software (WPI, Sarasota, Florida) was used for continuous recording of the heart rate (HR), left ventricular pressure (LVP), MVO2, and maximum positive and negative derivative of left ventricular pressure (±dP/dt). The baseline was established during 10–15 minutes of K-H perfusion. Each concentration of Cas or Doxo remained in the heart for 30 min. Hearts in the control group were perfused with K-H buffer during the whole experimental time. Rate pressure product (RPP = HR × LVP) and cardiac efficiency ([…]) were calculated as previously reported.
(§2) To measure the energetic metabolites ATP, phosphocreatine (PCr), and aconitase activity at the end of the perfusion protocols, samples were prepared as follows: the hearts were removed from the perfusion system by cutting the aorta and immediately flash-frozen with liquid N2, weighed, and stored at −80°C. Afterward, the hearts were homogenized in ice-cold buffer containing 250 mM sucrose, 10 mM HEPES, and 1 mM EDTA (pH 7.4). For enzymatic determination, aliquots of the homogenate were immediately frozen in liquid nitrogen and stored at −80°C. Quantification of ATP and PCr was carried out in a HPLC system with a dual-pump gradient (Waters Chromatography, Toronto, Canada) as previously described.

[3] = system: α-ketoglutarate dehydrogenase; design: method as in PMID 26739598; conditions: cited from earlier work
[4] = system: mitochondria isolated from Cas-treated hearts; test: Respiratory activity of mitochondria isolated from treated hearts (Clark-type oxygen electrode); design: species or system rat
Method: (§3) To measure mitochondrial oxygen consumption, mitochondrial membrane potential, and Ca^2+ uptake, cytochrome c samples were prepared as follows: after perfusion, heart tissue from the left ventricle was minced and homogenized in cold mitochondrial isolation medium (in mM: 125 KCl, 1 EDTA, and 10 HEPES-HCl; pH 7.3). The mitochondrial fraction was obtained by differential centrifugation using the protease Nagarse, as previously described. Mitochondrial oxygen consumption was measured using a Clark-type oxygen electrode. The experiments were carried out in respiration assay medium containing 125 KCl, 10 HEPES-HCl, and 3 KH2PO4 (in mM) with pH 7.3. State 4 respiration was measured in the presence of 10 mM glutamate-malate, and state 3 respiration was evaluated after addition of 100 μM ADP. Maximal respiration was determined with 0.08 μM of carbonyl cyanide m-chlorophenyl hydrazine (CCCP). The mitochondrial membrane potential was measured by fluorometry using 5 μM safranine. Mitochondrial Ca^2+ uptake was determined with the metalochromic indicator, Arsenazo III, or calcium green 5N (5N-CG), using a medium containing 50 μM Arsenazo or 10 μM 5N-CG, 10 mM succinate plus rotenone (0.1 μg·ml^−1), 200 μM ADP, and 0.25 μg oligomycin A. Pulses of 10 nmol Ca^+2 were added every 3 minutes to reach a Ca^+2 release due to MPT opening. Mitochondrial cytochrome c quantification from Cas-treated hearts was performed using Western blot analysis as described previously. The blots were developed with Luminata crescendo substrate (Merck Millipore, Darmstadt, Germany) and detected with VisionWorks LS-UVP Chimio System (BioSpectrum 415 Imaging System, Cambridge, UK).

[5] = system: mitochondrial permeability transition pore; test: Mitochondrial Ca2+ retention capacity (MPT opening); design: species or system rat; conditions: mitochondria from treated hearts, CsA 0.5 μM added in vitro
Method: as §3

[6] = system: aconitase; test: Mitochondrial aconitase activity in heart homogenates; conditions: ex vivo heart, Cas at IC50, Doxo 5 μM
Method: as §2

[7] = system: cytochrome c; test: Mitochondrial cytochrome c content by Western blot; design: species or system rat; conditions: heart mitochondria after 30 min perfusion at IC50
Method: as §3, with “Mitochondrial cytochrome c quantification from Cas-treated hearts was performed using Western blot analysis as described previously. The blots were developed with Luminata crescendo substrate (Merck Millipore, Darmstadt, Germany) and detected with VisionWorks LS-UVP Chimio System (BioSpectrum 415 Imaging System, Cambridge, UK).” left out

[8] = system: isolated rat hearts; test: Langendorff-perfused isolated rat heart: mechanical performance (RPP, HR, ±dP/dt, cardiac efficiency)
Method: as §1

[9] = system: caspases 3 and 7; test: Caspase-Glo 3/7 activity in cell lysates; type: cell-based, rat; conditions: cardiomyocytes treated at IC50, compared to Doxo or the control
Text: Ventricular cardiomyocytes were obtained from male Wistar rats (250–300 g) by digestion with collagenase type II as previously described. Cells were washed in Tyrode solution (mM): 130 NaCl, 5.4 KCl, 0.4 NaH2PO4, 0.5 MgCl2, 25 HEPES, and 5 glucose with pH 7.4. After isolation, cells were cultivated at a density of 3.2 × 10^3 viable cells/well in 96-well plates pretreated with laminin in M-199 medium supplemented in mM with 5 taurine, 5 creatine, 2 L-carnitine, 2.5 sodium pyruvate, and penicillin-streptomycin at 100 U·ml^−1 and 100 μg·ml^−1, respectively, at 37°C, with 5% CO2 and 95% air. After incubation for three hours, varying concentrations of Cas were tested in triplicate, exposing the myocytes during 24 hours to each treatment. At the end of the incubation period, the cytotoxicity of Cas was measured using the Alamar Blue viability test (Life Technologies, Carlsbad, CA, USA). Release of cytoplasmic lactate dehydrogenase (LDH) was determined using CytoTox-ONE homogeneous membrane integrity kit (Promega Madison, WI, USA). The activity of caspases 3/7 and caspase 9 was measured in cell lysates using caspase-Glo 3/7 and caspase-Glo 9 test luminescent assay (Promega, Madison, WI, USA), respectively. The cardiomyoblast cell line H9c2 (ATCC CRL-1446) was maintained using standard procedures in DMEM supplemented with 10% fetal bovine serum prior to the oxidative stress experiments.

SMILES: CC(=O)C=C(C)[O-].Cc1ccnc(-c2cc(C)ccn2)c1.O.O.O=[N+]([O-])[O-].[Cu+2] [Cas III-ia, Aqua(4,4-dimethyl-2,2′bipyridine)(acetylacetonate)copper(II)nitrate]
- reduction of the volume of subcutaneous tumors [1]: 81%
- PCr levels [2]: decreased
- change in MVO2 [2]: no changes
- decrease in ATP content [2]: 37%
- α-ketoglutarate dehydrogenase activity compared with III-Ea [3]: twofold decrease
- Max. respiration ([4]; 0.08 μM CCCP): 12.3 ± 2.6^∗ nmol O min^−1·mg^−1
- State 4 respiration ([4]; 10 mM glutamate-malate): 15.6 ± 2.6 nmol O min^−1·mg^−1
- Respiratory control ([4]; malate/glutamate): 1.3 ± 0.1^∗
- State 3 respiration ([4]; malate/glutamate, after 100 μM ADP): 18.5 ± 0.6^∗ nmol O min^−1·mg^−1
- decrease in state 3 respiration rate ([4]; versus control): 78%
- reduction in maximal respiration ([4]; versus control): 87%
- protective effect of CsA on Ca2+ retention capacity [5]: 28%
- aconitase activity [6]: decreased
- mitochondrial cytochrome c content [7]: reduction of cytochrome c
- +dP/dt × 1000 (contraction rate) ([8]; hearts treated at the IC50): 2.4 ± 0.20^∗ mmHg·s^−1
- −dP/dt × 1000 (relaxation rate) ([8]; hearts treated at the IC50): −1.0 ± 0.16^∗ mmHg·s^−1
- t 0.5, time for half-inhibition of RPP ([8]; isolated rat heart, 5 μM): 49 ± 0.8^a,b,c min
- heart rate (HR) reduction ([8]; perfused at 5 μM): not affected
- IC50 ([8]; read-out: IC50, half-maximal inhibitory concentration for RPP (heart contractile function), isolated rat heart, at 30 min perfusion): 10 ± 0.7 µM
- increase in activity of caspases 3 and 7 [9]: ~ 4 fold
